Measurements: US20110136751A1, “Use of Polyphenols in the Treatment of Cancer” (Green Molecular, priority 2009, published 2011)

Tests used:
Assay in all cases: IC50 on cell viability, Cell Counting Kit-8
Format in all cases: cell-based
BT-20 = settings: Homo sapiens; code 1, BT-20, Breast Carcinoma; cell viability 120 h after administration
Procedure: (§1) A panel of 36 human cell lines were first tested in terms of population doubling time and growth curves to determine the conditions for further assays. The cells were also tested to determine the dose of radiation that produces 50% cell viability (D50). […] Cell viability was determined 120 h after the administration of the compounds using the Cell Counting Kit-8 (Dojindo Molecular Technologies, Inc, Rockville, Md.). In the experiments, 0.1% SDS and 1% DMSO were used as positive and negative controls, respectively. Final concentrations of the compounds used in the experiments are listed below in Table 5: […]

Panc 10 05 = settings: Homo sapiens, Panc1005; code 33, Panc 10 05, Pancreas Adenocarcinoma; cell viability 120 h after administration
Procedure: as §1

KHOS-NP = settings: Homo sapiens; code 28, KHOS-NP, Bone Osteosarcoma; cell viability 120 h after administration
Procedure: as §1

MCF-7 = settings: Homo sapiens, MCF7; code 2, MCF-7, Breast Adenocarcinoma; cell viability 120 h after administration
Procedure: as §1

NCI-H4BO = settings: Homo sapiens; code 20, NCI-H4BO, Lung Carcinoma; cell viability 120 h after administration
Procedure: as §1

A375 = settings: Homo sapiens, A-375; code 23, A375, Skin Melanoma; cell viability 120 h after administration
Procedure: as §1

U-38 MG = settings: Homo sapiens; code 13, U-38 MG, Brain Gliblastoma/astrocitoma; cell viability 120 h after administration
Procedure: as §1

A-204 = settings: Homo sapiens, A204; code 35, A-204, Muscle Rhabdomyosarcoma; cell viability 120 h after administration
Procedure: as §1

SW-872 = settings: Homo sapiens, SW872; code 18, SW-872, Connective tissue Fibrosarcoma; cell viability 120 h after administration
Procedure: as §1

MEWO = settings: Homo sapiens; code 26, MEWO, Skin Melanoma; cell viability 120 h after administration
Procedure: as §1

HCT 116 = settings: Homo sapiens; code 6, HCT 116, Colorectal Carcinoma; cell viability 120 h after administration
Procedure: as §1

A549 = settings: Homo sapiens; code 22, A549, Lung Carcinoma; cell viability 120 h after administration
Procedure: as §1

MDA-MB-231 = settings: Homo sapiens; code 3, MDA-MB-231, Breast Adenocarcinoma; cell viability 120 h after administration
Procedure: as §1

HBL-52 = settings: Homo sapiens; code 19, HBL-52, Brain Meningioma; cell viability 120 h after administration
Procedure: as §1

HCT-15 = settings: Homo sapiens; code 7, HCT-15, Colorectal Adenocarcinoma; cell viability 120 h after administration
Procedure: as §1

Colo 201 = settings: Homo sapiens; code 5, Colo 201, Colorectal Adenocarcinoma; cell viability 120 h after administration
Procedure: as §1

T-47D = settings: Homo sapiens, T47D; code 4, T-47D, Breast Carcinoma; cell viability 120 h after administration
Procedure: as §1

SH-SY5Y = settings: Homo sapiens; code 16, SH-SY5Y, Brain Neuroblastoma; cell viability 120 h after administration
Procedure: as §1

BxPC-3 = settings: Homo sapiens; code 31, BxPC-3, Pancreas Adenocarcinoma; cell viability 120 h after administration
Procedure: as §1

A-172 = settings: Homo sapiens; code 12, A-172, Brain Gliblastoma; cell viability 120 h after administration
Procedure: as §1

LN229 = settings: Homo sapiens, LN-229; code 11, LN229, Brain Gliblastoma; cell viability 120 h after administration
Procedure: as §1

Panc-1 = settings: Homo sapiens; code 34, Panc-1, Pancreas Carcinoma Epithiloid; cell viability 120 h after administration
Procedure: as §1

C32 = settings: Homo sapiens; code 24, C32, Skin Melanoma; cell viability 120 h after administration
Procedure: as §1

HT-1080 = settings: Homo sapiens; code 9, HT-1080, Fibrosarcoma; cell viability 120 h after administration
Procedure: as §1

A-673 = settings: Homo sapiens, A673; code 36, A-673, Muscle Rhabdomyosarcoma; cell viability 120 h after administration
Procedure: as §1

LN-18 = settings: Homo sapiens; code 10, LN-18, Brain Gliblastoma; cell viability 120 h after administration
Procedure: as §1

HPAF-II = settings: Homo sapiens; code 32, HPAF-II, Pancreas Adenocarcinoma; cell viability 120 h after administration
Procedure: as §1

MNNG-HOS = settings: Homo sapiens; code 29, MNNG-HOS, Bone Osteosarcoma; cell viability 120 h after administration
Procedure: as §1

SK-MEL-2 = settings: Homo sapiens; code 25, SK-MEL-2, Skin Melanoma; cell viability 120 h after administration
Procedure: as §1

HT-29 = settings: Homo sapiens; code 8, HT-29, Colorectal Adenocarcinoma; cell viability 120 h after administration
Procedure: as §1

O=c1c(O)c(-c2ccc(O)c(O)c2)oc2cc(O)cc(O)c12 [QUER, quercetin]
IC50 (BT-20): 9.21 µM
IC50 (Panc 10 05): 23 µM
IC50 (KHOS-NP): 15.7 µM
IC50 (MCF-7): 19.7 µM
IC50 (NCI-H4BO): 10.1 µM
IC50 (A375): 19.6 µM
IC50 (U-38 MG): 4.83 µM
IC50 (A-204): 18.1 µM
IC50 (SW-872): 3.51 µM
IC50 (MEWO): 8.59 µM
IC50 (HCT 116): 56.9 µM
IC50 (A549): 13.4 µM
IC50 (MDA-MB-231): 20.7 µM
IC50 (HBL-52): 22.8 µM
IC50 (HCT-15): 12.4 µM
IC50 (Colo 201): 18.1 µM
IC50 (T-47D): 10.7 µM
IC50 (SH-SY5Y): 4.38 µM
IC50 (BxPC-3): 15.9 µM
IC50 (A-172): 10 µM
IC50 (LN229): 8.12 µM
IC50 (Panc-1): 62.5 µM
IC50 (C32): 22.1 µM
IC50 (HT-1080): 5.54 µM
IC50 (A-673): 4.09 µM
IC50 (LN-18): 9.72 µM
IC50 (HPAF-II): 20.2 µM
IC50 (MNNG-HOS): 9.91 µM
IC50 (SK-MEL-2): 11.6 µM
IC50 (HT-29): 18.7 µM

Oc1ccc(/C=C/c2cc(O)cc(O)c2)cc1 [RI, trans-3,5,4′-trihydroxystilbene, reference compound]
IC50 (BT-20): 66 µM
IC50 (Panc 10 05): 24.2 µM
IC50 (KHOS-NP): 20 µM
IC50 (MCF-7): 49.9 µM
IC50 (NCI-H4BO): 11.5 µM
IC50 (A375): 24.9 µM
IC50 (U-38 MG): 6.29 µM
IC50 (A-204): 19 µM
IC50 (SW-872): 81.1 µM
IC50 (MEWO): 17.1 µM
IC50 (HCT 116): 31.4 µM
IC50 (A549): 16.3 µM
IC50 (MDA-MB-231): 15.1 µM
IC50 (HBL-52): 29.1 µM
IC50 (HCT-15): > 100 µM
IC50 (Colo 201): 37.4 µM
IC50 (T-47D): 25.6 µM
IC50 (SH-SY5Y): 26.1 µM
IC50 (BxPC-3): 13.6 µM
IC50 (A-172): 47.6 µM
IC50 (LN229): 11.2 µM
IC50 (Panc-1): 33 µM
IC50 (C32): 18.5 µM
IC50 (HT-1080): 10.2 µM
IC50 (A-673): 6.73 µM
IC50 (LN-18): 28.4 µM
IC50 (HPAF-II): 86.1 µM
IC50 (MNNG-HOS): 11.7 µM
IC50 (SK-MEL-2): 10.7 µM
IC50 (HT-29): 27.9 µM

COc1cc(/C=C/c2ccc(O)cc2)cc(OC)c1 [t-PTER, trans-3,5-dimethoxy-4′-hydroxystilbene]
IC50 (BT-20): 96.9 µM
IC50 (Panc 10 05): 46.3 µM
IC50 (KHOS-NP): 25.6 µM
IC50 (MCF-7): 39.4 µM
IC50 (NCI-H4BO): 16.6 µM
IC50 (A375): 75.3 µM
IC50 (U-38 MG): 29.7 µM
IC50 (A-204): 23.4 µM
IC50 (SW-872): 25.8 µM
IC50 (MEWO): 39 µM
IC50 (HCT 116): 45.2 µM
IC50 (A549): 25.8 µM
IC50 (MDA-MB-231): 62.8 µM
IC50 (HBL-52): 33.2 µM
IC50 (HCT-15): 49.5 µM
IC50 (Colo 201): 29.8 µM
IC50 (T-47D): 35 µM
IC50 (SH-SY5Y): 31.7 µM
IC50 (BxPC-3): 31.1 µM
IC50 (A-172): 29.7 µM
IC50 (LN229): 14.3 µM
IC50 (Panc-1): 50.1 µM
IC50 (C32): 30.2 µM
IC50 (HT-1080): 17.8 µM
IC50 (A-673): 5.8 µM
IC50 (LN-18): 18.1 µM
IC50 (HPAF-II): 55.6 µM
IC50 (MNNG-HOS): 12.3 µM
IC50 (SK-MEL-2): 17.3 µM
IC50 (HT-29): 28.4 µM
